Publication PMC7897990, “TriTOX: A novel Trichomonas vaginalis assay platform for high-throughput screening of compound libraries” (International Journal for Parasitology: Drugs and Drug …, 2021)
Where two headings read alike, the source gives them in different places. Positions of bridges follow the written chain, without caps; N, C: chain ends. Non-standard residues stand in square brackets, D forms with d. Residues, ends and D or L forms follow the SMILES beside them. *: point of attachment. d(aThr) = C[C@@H](O)[C@@H](N)C(=O)O; X1 = CCCCCCCCCCCC(O)CC(=O)*

Tested on: Trichomonas vaginalis G3 trophozoites
Settings: for T.vaginalis_Absorbance_Rep1: replicate 1, raw absorbance; for T.vaginalis_Absorbance_Rep2: replicate 2, raw absorbance
[1] = HTS, parasite screen at 1 µg/mL, replicate 1
[2] = HTS, parasite screen at 1 µg/mL
[3] = HTS, parasite screen at 1 µg/mL, replicate 2
[4] = HTS replicate 1, parasite screen 1 µg/mL
[5] = HTS replicate 2, parasite screen 1 µg/mL

SMILES | T.vaginalis_%inb_Rep1 [1] [%] | T.vaginalis_Absorbance_Rep1 [2] | T.vaginalis_%inb_Rep2 [3] [%] | T.vaginalis_Absorbance_Rep2 [2] | T.vaginalis_%inb_Rep1 [4] [%] | T.vaginalis_%inb_Rep2 [5] [%] | further results
C/C=C(/C)c1cc(O)c(C)c2c1Oc1c(C)c(O)cc(/C(C)=C\C)c1C(=O)O2 [Folipastatin] | 12.58 | 0.95 | 14.11 | 0.855 |  |  | 
CCC/C=C/C=C/C1C[C@@H](O)[C@@H](O)C(=O)[C@H]1C=O (some centres unmarked) [Frequentin] | 13.62 | 0.962 | 7.74 | 0.727 |  |  | 
COC1=C(OC)C(=O)C(C)=CC1=O [Fumigatin methylether] | 13.18 | 0.962 | 9.62 | 0.785 |  |  | 
COC1=C(O)c2c(O)cc(C)c3c(O)cc(O)c(c23)C1=O [Funalenone] | 14.50 | 0.988 | 12.96 | 0.837 |  |  | 
CCCCCCC(C)C/C(C)=C\C(/C=C(C)/C=C/C(O)C(C)(C)c1cc(O)c([C@@H]2O[C@H](CO)C[C@H](O)[C@H]2O)c(=O)o1)CO (some centres unmarked) [Fusapyrone] | 13.39 | 0.966 | 13.21 | 0.841 |  |  | 
CC(=O)OCc1c(O)c2c(c3c1OC(=O)c1c(C)cc(O)c(C=O)c1O3)C(O)OC2=O (centres unmarked) [Galbinic acid] | 15.37 | 1.005 | 12.89 | 0.836 |  |  | 
C[C@@H]1C=C2C(=O)O[C@@H]3CC[C@H](C1)[C@]23O [Galiellalactone] | 19.07 | 1.078 | 5.71 | 0.724 |  |  | 
CCCN1C[C@H](C)[C@@H](O)[C@](C)(O)[C@@H](CC)OC(=O)[C@H](C)[C@@H](O[C@H]2C[C@@](C)(OC)[C@@H](O)[C@H](C)O2)[C@H](C)[C@@H](O[C@@H]2O[C@H](C)C[C@H](N(C)C)[C@H]2O)[C@](C)(O)C[C@H]1C [Gamithromycin] | 5.73 | 0.815 | 7.95 | 0.759 |  |  | 
C=C(NC(=O)C(=C)NC(=O)c1ccc2c(n1)-c1coc(n1)C(=C)NC(=O)C(=C)NC(=O)c1nc(oc1C)C(=C)NC(=O)C(C(C)(C)O)NC(=O)C(=C)NC(=O)c1coc(n1)/C(=C/C)NC(=O)[C@H]([C@@H](C)O)NC(=O)c1csc-2n1)C(N)=O (some centres unmarked) [Geninthiocin] | 14.25 | 0.983 | 12.51 | 0.83 |  |  | 
CCc1c(O)c(C)c(C(C)CC)oc1=O (centres unmarked) [Germicidin A] | 11.41 | 0.927 | 12.19 | 0.825 |  |  | 
COc1cc2c(oc(=O)c3cc(C)cc(OC)c32)c2c(C3OC(C(C)O)C(O)C3O)ccc(O)c12 (centres unmarked) [Gilvocarcin M] | 10.14 | 0.902 | 13.92 | 0.852 |  |  | 
COC1=C(OC)C(=O)C(C)C(C)C1=O (centres unmarked) [Gliorosein] | 13.24 | 0.963 | 15.33 | 0.874 |  |  | 
COC1=C(OC)C(O)C(C)C(C)C1=O (centres unmarked) [Glioroseinol] | 11.16 | 0.922 | 1.92 | 0.665 |  |  | 
COc1cc(O)c2c(=O)oc3c(O)c(OC)cc(C)c3c2c1 [Graphislactone A] | 13.44 | 0.967 | 16.48 | 0.892 |  |  | 
COC(=O)C1(O)CC2OC1(C)n1c3ccccc3c3c4c(c5c6ccccc6n2c5c31)C(=O)NC4 (centres unmarked) [K252A, reference compound] |  |  |  |  |  |  | T. vaginalis HTS result in words (384-well, 25 μL, 10,000 cells/mL, 48 h, biological duplicates, hit = >50% inhibition): active analogues
CC1=C[C@H]2C(=O)O[C@H]3C[C@@H](C/C=C(\C)C[C@@H](C)/C=C/C=C4\CO[C@H](/C1=N/O)[C@@]42O)O[C@@]1(CC[C@H](C)[C@@H](C)O1)C3 [Milbemycin A3 oxime] |  |  |  |  | 12.78 | 11.35 | 
CC1=C[C@H]2C(=O)O[C@H]3C[C@@H](C/C=C(\C)C[C@@H](C)/C=C/C=C4\CO[C@H]([C@@H]1O)[C@@]42O)O[C@@]1(CC[C@H](C)[C@@H](C)O1)C3 [Milbemycin A3] |  |  |  |  | 11.05 | 8.85 | 
CCC1OC2(CCC1C)CC1CC(CC=C(C)CC(C)C=CC=C3COC4C(=NO)C(C)=CC(C(=O)O1)C34O)O2 (centres unmarked) [Milbemycin A4 oxime] |  |  |  |  | 13.39 | 13.53 | 
CCC1OC2(CCC1C)CC1CC(CC=C(C)CC(C)C=CC=C3COC4C(O)C(C)=CC(C(=O)O1)C34O)O2 (centres unmarked) [Milbemycin A4] |  |  |  |  | 12.17 | 12.96 | 
C/C1=C\C(C)C(O)/C(C)=C/C(O[C@H]2O[C@H](CO)[C@@H](O)[C@H](O)[C@@H]2O)C(O)C(C)C(O)CC(O)/C=C\C(C)C(O)C(C)CCC(O)CC(O)C(C)C(O)C(C)C(O)CC(O)CC(O)C(C)C(C(C)CCCCCCN)OC(=O)CCCCCC(O)C(C)C(O)CC/C=C/C(C)C1O (some centres unmarked) [Monazomycin] |  |  |  |  | 9.53 | 13.73 | 

SMILES | T.vaginalis_%inb_Rep1 [1] [%] | T.vaginalis_Absorbance_Rep1 [2] | T.vaginalis_%inb_Rep2 [3] [%] | T.vaginalis_Absorbance_Rep2 [2] | T.vaginalis_%inb_Rep1 [4] [%] | T.vaginalis_%inb_Rep2 [5] [%] | further results
CC(=O)c1c(O)cc(O)cc1O [Monoacetylphloroglucinol] |  |  |  |  | 4.36 | 14.18 | 
COC(=O)c1cc(O)cc(OC)c1C(=O)c1c(O)cc(C)cc1OC [Monomethylsulochrin] |  |  |  |  | 8.42 | 11.03 | 
CC1(C)CC[C@]2(C)CC[C@]3(C)C4=CC[C@H]5C(C)(C)[C@@H](O)CC[C@]5(C)[C@H]4CC[C@@]3(C)[C@@H]2C1 [Multiflorenol] |  |  |  |  | 10.55 | 11.42 | 
C=C[C@]1(C)C[C@@H](O)[C@]2(C)[C@H](C)CC[C@]3(CCC(=O)[C@H]32)[C@@H](C)[C@@H]1O [Mutilin] |  |  |  |  | 12.02 | 13.21 | 
CC[C@H](C)[C@@H]1OC(=O)C(C)(C)[C@@H](O)[C@@H](Cc2ccccc2)OC(=O)[C@H](C(C)C)OC(=O)[C@@H](NC(=O)c2cccc(NC=O)c2O)[C@H](C)OC1=O [Neoantimycin] |  |  |  |  | 13.59 | 11.67 | 
C/C=C(\C)c1c(Cl)c(OC)c(C)c2c1Oc1c(Cl)c(O)c(Cl)c(C)c1C(=O)O2 [Nidulin] |  |  |  |  | 13.95 | 15.46 | 
CC1=C[C@H]2O[C@@H]3[C@H](O)[C@@H](O)[C@](C)([C@@]2(CO)[C@H](O)C1=O)[C@]31CO1 [Nivalenol] |  |  |  |  |  |  | T.vaginalis_%inb_Rep1: 9.96%; T.vaginalis_%inb_Rep2: 14.26%
Cc1cc(=O)n2c3c(c4c(cc13)c(CO)cc(=O)n4C)OC2 [Nybomycin] |  |  |  |  | 11.05 | 10.26 | 
C[C@@H]1[C@H](O)[C@@H](C)/C=C/C=C/CC/C=C/C=C/C=C/C=C/[C@H](O[C@@H]2O[C@H](C)[C@@H](O)[C@H](N)[C@@H]2O)C[C@@H]2O[C@](O)(C[C@@H](O)[C@H](O)CC[C@@H](O)C[C@@H](O)C[C@@H](O)CC(=O)O[C@H]1C)C[C@H](O)[C@H]2C(=O)O [Nystatin A1] |  |  |  |  | 11.66 | 11.87 | 
CCCCCCCCCCCC(O)CC(=O)N[C@@H](CC(C)C)C(=O)N[C@H](CCC(=O)O)C(=O)N[C@H]1C(=O)N[C@H](C(C)C)C(=O)N[C@@H](CC(C)C)C(=O)N[C@H](CO)C(=O)N[C@@H](CC(C)C)C(=O)N[C@@H](CC(C)C)C(=O)N[C@H](CO)C(=O)N[C@@H](C(C)C)C(=O)O[C@@H]1C (some centres unmarked) [Orfamide B] (X1-L[dE][d(aThr)][dV]L[dS]LL[dS]V; ester 3-C) |  |  |  |  | 16.23 | 12.19 | 
Cc1ccc2c(c1O)C(=O)c1c(cc(O)c(C(=O)O)c1C)[C@]2(C)OO[C@@]1(C)c2cc(O)c(C(=O)O)c(C)c2C(=O)c2c1ccc(C)c2O [Oxanthromicin, (+)] |  |  |  |  | 15.31 | 5.45 | 
COc1cc(O)c2c(c1)/C=C/CC(O)C(O)C(=O)/C=C/CC(C)OC2=O (centres unmarked) [Oxozeaenol, (5E)-7-] |  |  |  |  | 8.42 | 13.66 | 
NC(=O)c1cccc2nc3ccccc3nc12 [Oxychloroaphine] |  |  |  |  | 11.41 | 13.92 | 
COCC(=O)N[C@@H](C(=O)N1NCCC[C@H]1C(=O)N[C@@H](Cc1ccccc1)[C@@H](O)[C@H](C)C(=O)N[C@H]1CCN(C(N)=O)C1=O)[C@H](O)C(C)C [Padanamide A] |  |  |  |  | 15.72 | 10.52 | 
CCC/C=C/C=C/[C@@H]1C[C@@H](O)[C@@H](O)C(=O)[C@H]1CO [Palitantin] |  |  |  |  | 13.59 | 14.56 | 
COc1ccc([C@@]2(O)c3c(ccc(/C=C/[C@]4(C)CCC(C)(C)CO4)c3O)NC(=O)[C@@H]2OC)cc1 [Penigequinolone A] |  |  |  |  | 16.23 | 11.87 | 
CCCC[C@H](O)[C@@H]1CC(OC)=CC(=O)O1 [Pestalotin] |  |  |  |  | 11.05 | 11.16 | 
COc1c(OC)c(-c2c[nH]c3ccc(O)cc23)c(OC)c(OC)c1-c1c[nH]c2ccccc12 [Petromurin C] |  |  |  |  | 7.91 | 12.64 | 
C[C@@H](O)CCCCCCCCCCCCCc1cc(O)cc(O)c1C(=O)O [Phanerosporic acid] |  |  |  |  | 18.46 | 9.81 | 
C/C=C\C=C\[C@@H]1O[C@](O)([C@H](CO[C@H]2C[C@@H](OC)[C@@H](O[C@@H]3C[C@@H](OC)[C@@H](O[C@H]4C[C@H](OC)[C@H](O)[C@H](C)O4)[C@H](C)O3)[C@@H](C)O2)C(=O)NC/C=C/C=C(\C)[C@@H](OC)[C@H](C)[C@H]2C[C@H](O)[C@H](/C=C/C=C/C=C/C(=O)O)O2)[C@H](OC(=O)Cc2ccccc2)[C@H](O)C1(C)C [Phenelfamycin E] |  |  |  |  | 11.16 | 10.07 | 
